The subject of test [1] is Humanized Rat Basophil Leukaemia (RBL) cells (clone RBL-703/21). The experiment in a line: human RBL assay: β-hexosaminidase release of humanized RBL cells loaded with patients' serum IgE. Type of test: cell-based. Conditions: for biological activity (% of patients): percentage of 78 patients' sera triggering β-hexosaminidase release, milk components 0.3 μg/ml; for extent of degranulation relative to the activity of the complete protein: synthetic alphaS1-casein-derived peptides. An excerpt: A scientifically approved model to test biological reactivity of molecules is induction of histamine release from human basophil granulocytes (Purohit 2005). For this purpose a rat basophil leukaemia cell line expressing the α-chain of the human FcεRI receptor (Hoffmann et al., Int Arch Allergy Immunol, Vol 126(4), p. 277-285) was used. Different milk components (n=33) including whole milk extracts from different species, milk fractions, purified natural and recombinant cow's milk proteins, and recombinant protein fragments were tested. The percentages of 78 patients whose serum IgE antibodies trigger β-hexosaminidase release of the humanized RBL cells in response to the individual milk components were determined (FIG. 3).
(§1) Sera from 78 patients who were selected according to a positive case history, positive skin-prick reactions and determination of specific IgE to cow's milk extract using the CAP-FEIA System (Phadia, Uppsala, Sweden) were used. Sera were obtained from five adults and 73 children (30 female and 43 male) from Austria, Germany, Italy, Spain and France.
Humanized Rat Basophil Leukaemia (RBL) cells (clone RBL-703/21) were incubated in microtiter plates overnight at 37° C. (7% CO2, 95% humidity) with 50 μl human sera, diluted 1:10. Afterwards cells were washed and exposed to milk components, diluted to 0.3 μg/ml protein in Tyrodes buffer containing 50% D2O and 0.1% BSA/HAS for 1 hour at 37° C. (7% CO2, 95% humidity). Spontaneous release of the cells was also evaluated. Finally, the cell supernatants were incubated with 50 μl assay solution (0.1 M citric acid or sodium citrate, pH 4.5, 160 μM 4-methyl umbelliferyl-N-acetyl-β-D-glucosaminide) in new microtiter plates at 37° C. (7% CO2, 95% humidity) for 1 h. The reactions were stopped by addition of 100 μl glycine buffer per well and the fluorescence measured at λex: 360 and λem: 465 using a fluorescence microplate reader. The specific hexosaminidase release of each sample was calculated using the formula: [(FlS−FlSp):(FlZ−FlSp)]×100 (where […] is the fluorescence of the sample; FlSp is the fluorescence of the spontaneous release and FlZ is the fluorescence of the total release).

Test [2] has as its system serum IgE of cow's milk allergic patients. As to the kind of experiment: IgE binding capacity (IgE reactivity) of milk components with patients' sera. Set-up: species or system human. The following applies: sera of cow's milk allergic patients (n=78).
From the text: as §1

For another test, the system named is patients' serum IgE. The experiment in a line: microarray IgE reactivity testing of ALA-derived peptides. Conditions: sera from the 36 patients with IgE reactivity to rALA. Type of test: binding, human. Here is the method: IgE reactivity testing to ALA-derived peptides:IgE reactivities of the ALA-derived peptides were determined by microarray analysis as described (Schulmeister et al., J Immunol. 182(11):7019-29). In brief, milk components were spotted onto a capillary-flow membrane on an ordinary microscope glass slide and incubated with 25 μl of patients' sera. Bound IgE antibodies were detected with a fluorescence-conjugated anti-IgE antibody at a wavelength of 670 nm. The cut off level was set for each patient as the double value of the individual value gained with human serum albumin.
In order to identify IgE-reactive epitopes of ALA, we synthesized 8 peptides spanning the ALA sequence (Table 2). […] The IgE reactivity of the 8 overlapping peptides was evaluated by microarray analysis using sera from the 36 patients showing IgE reactivity to rALA. […] In total 19 of the 36 patients with IgE reactivity to rALA reacted at least with one ALA-derived synthetic peptide.

For test [3], the system named is IgE of sera from cow's milk allergic patients. As to the kind of experiment: dot blot IgE reactivity of nitrocellulose-dotted milk components. Format: binding, human. The following applies: 1 μg dotted; sera from three cow's milk allergic patients, 1:20. The text has this: In FIG. 6 a Mascot search and the identification of beta-casein-derived peptides in hydrolyzed cow's milk is depicted. At the top beta-casein, the only identified milk allergen in mass spectrometry, is mentioned with its molecular mass and calculated pI. Below the search parameters and the obtained sequence coverage of beta-casein are given. […] The beta-casein allergen was identified with peptide matches: HQPHQPLPPT (calculated mass of 1.25 kDa, corresponding to aa 160-170 of beta-casein), VYPFPGPIPN (calculated mass of 1.19 kDa, corresponding to aa 74-84 of beta-casein), SSSEE (calculated mass of 0.65 kDa, corresponding to aa 31-36 of beta-casein), and PVVVPP (calculated mass of 0.87 kDa, corresponding to aa 96-103 of beta-casein). In FIG. 7 IgE reactivity testing of these peptides is shown (Table 1: cas b-1, 2, 3 and 4; FIG. 7). […] IgE reactivity of nitrocellulose-dotted cow's milk (CM), recombinant beta-casein (rBC), synthetic beta-casein-derived peptides (cas b-1, cas b-2, cas b-3, cas b-4), and recombinant alphaS1-casein (rAS1C) were analysed by dot blot assay. Nitrocellulose-bound milk components were incubated with the sera from three cow's milk allergic patients (lanes 1, 2 and 3) and a non-allergic individual (lane C). Bound IgE antibodies were detected with ^125I-labeled anti-IgE antibodies. […] Furthermore, they are different from the published major IgE binding regions of beta-casein (aa 1-16, aa 83-92, aa 135-144; Chatchatee 2001). None of the other IgE-reactive milk allergens and allergen fragments obtained by screening of the cDNA expression library (FIG. 1) were detected in the hydrolyzed milk sample which therefore could be identified as a non-allergenic preparation.
Hydrolyzed milk formula was analyzed by reversed-phase HPLC using a nano liquid chromatography system (Ultimate, LC Packings Dionex, The Netherlands) connected to the nanospray interface of a HCT-Ultra mass spectrometer (Bruker Daltonik, Germany). The obtained mass spectra were searched against the SwissProt protein databank using MASCOT (Matrix Science, London, United Kingdom) software search algorithms. For dot blot analysis 1 μg of protein was dotted onto nitrocellulose, and incubated with sera from milk allergic patients diluted 1:20 in PBST (PBS, 0.5% v/v Tween 20). Bound IgE antibodies were detected with 1:15 diluted ^125I-labelled anti-human IgE antibodies (IBL, Germany).

Take sheep serum albumin [SSA]: the “biological activity (% of patients)” value in test [1] is reported as 2.6 % of patients. For the same substance, the “IgE binding (% of patients)” value in test [2] was 1.3 % of patients.

In the case of bovine serum albumin [BSA], the “biological activity (% of patients)” value in test [1] is 2.1 % of patients. The “IgE binding (% of patients)” value in test [2] is 6.4 % of patients.

For “FGKEKVNELSKDIGSESTEDQAMEDIKQMEAES [Cas 2, synthetic peptide of αS1-casein]”, in test [1], the “biological activity (% of patients)” value is 3.8 % of patients and the “extent of degranulation relative to the activity of the complete protein” value is listed as “one fourth”. In addition, the “IgE binding (% of patients)” value in test [2] is reported as 15.4 % of patients.

For “LAHKALCSEKLDQWLCEKL [Lac8, synthetic ALA-derived peptide]”, the “IgE binding (% of patients)” value in the test with patients' serum IgE is recorded as 11.1 % of patients.

On to “WCKDDQNPHSSNICNISCDK [Lac5, synthetic ALA-derived peptide]”, for which the “IgE binding (% of patients)” value in the test on patients' serum IgE is reported as 2.8 % of patients.

Regarding “NDSTEYGLFQINNK1WCKDD (NDSTEYGLFQINNKIWCKDD) [Lac4, synthetic ALA-derived peptide]”, the “IgE binding (% of patients)” value in the test on patients' serum IgE is listed as 5.6 % of patients.

Turning to recombinant kappa-casein [rKC], the “biological activity (% of patients)” value in test [1] is on record as 6.4 % of patients. Further, the “IgE binding (% of patients)” value in test [2] is on record as 21.8 % of patients.

Consider “PVVVPPFL [cas b-4, synthetic peptide of β-casein]”, for which, in test [3], the “IgE reactivity (dot blot)” value is reported as “not IgE-reactive”.

Turning to alpha-casein [AC], the “biological activity (% of patients)” value in test [1] was 25.6 % of patients. For the same substance, the “IgE binding (% of patients)” value in test [2] is 50.0 % of patients.

Turning to “ISSSEEIVPNSVEQKHIQKEDVPSERYLGYEQLLRC [Cas 3, synthetic peptide of αS1-casein]”, in test [1], the “biological activity (% of patients)” value was 2.6 % of patients and the “extent of degranulation relative to the activity of the complete protein” value is listed as “about a tenth”. Moreover, the “IgE binding (% of patients)” value in test [2] was 46.2 % of patients.

As to “CPMIGVNQELAYFYPELFRQFYQLDAYPSGAWYYV [Cas 5, synthetic peptide of αS1-casein]”, in test [1], the “biological activity (% of patients)” value is 5.1 % of patients and the “extent of degranulation relative to the activity of the complete protein” value is listed as “about a tenth”. In addition, the “IgE binding (% of patients)” value in test [2] is reported as 41.0 % of patients.

On to “CLKKYKVPQLEIVPNSAEERLHSMKEGIHIAQQKE [Cas 4, synthetic peptide of αS1-casein]”, for which, in test [1], the “biological activity (% of patients)” value was 3.8 % of patients and the “extent of degranulation relative to the activity of the complete protein” value is listed as “about a tenth”. In test [2], the “IgE binding (% of patients)” value is 35.9 % of patients.

As for “LSSSEE [cas b-3, synthetic peptide of β-casein]”, the “IgE reactivity (dot blot)” value in test [3] is recorded as “not IgE-reactive”.

Consider “HQPHQPLPPTV [cas b-1, synthetic peptide of β-casein]”, for which the “IgE reactivity (dot blot)” value in test [3] is “not IgE-reactive”.

Regarding “TFHTSGYDTQA1YQNNDSTE (TFHTSGYDTQAIYQNNDSTE) [Lac3, synthetic ALA-derived peptide]”, the “IgE binding (% of patients)” value with patients' serum IgE was 0 % of patients.

Turning to “LKGYGGVSLPEWVCTTFHTS [Lac2, synthetic ALA-derived peptide]”, the “IgE binding (% of patients)” value in the test with patients' serum IgE is 33.3 % of patients.

With alpha-lactalbumin [ALA], the “biological activity (% of patients)” value in test [1] is listed as 11.5 % of patients. Also, in test [2], the “IgE binding (% of patients)” value was 65.4 % of patients.

Take “EQLTKCEVFRELKDLKGYG [Lac1, synthetic ALA-derived peptide]”: the “IgE binding (% of patients)” value in the test on patients' serum IgE is 30.6 % of patients.

Turning to beta-lactoglobulin variant B [BLGB], the “biological activity (% of patients)” value in test [1] is 19.2 % of patients. In test [2], the “IgE binding (% of patients)” value is on record as 51.3 % of patients.

Turning to “VYPFPGPIIPNS [cas b-2, synthetic peptide of β-casein]”, in test [3], the “IgE reactivity (dot blot)” value was “not IgE-reactive”.

As to “RPKHPIKHQGLPQEVLNENLLRFFVAPFPEVC [Cas 1, synthetic peptide of αS1-casein]”, the “biological activity (% of patients)” value in test [1] is listed as 6.4 % of patients. Moreover, the “IgE binding (% of patients)” value in test [2] is reported as 43.6 % of patients.

Turning to “ISCDKFLDDDLTDDIMCVKK [Lac6, synthetic ALA-derived peptide]”, the “IgE binding (% of patients)” value with patients' serum IgE is 2.8 % of patients.

On to “MCVKKILDKVGINYWLAHKA [Lac7, synthetic ALA-derived peptide]”, for which, in the test on patients' serum IgE, the “IgE binding (% of patients)” value is reported as 2.8 % of patients.

Consider recombinant beta-lactoglobulin [rBLG], for which the “biological activity (% of patients)” value in test [1] is 12.8 % of patients. Also, in test [2], the “IgE binding (% of patients)” value is listed as 23.1 % of patients.

For the substance recombinant alpha-lactalbumin [rALA], the “IgE binding (% of patients)” value in the test with patients' serum IgE was 100.0 % of patients; in test [2] it was 25.6 % of patients. Moreover, the “biological activity (% of patients)” value in test [1] is given as 21.8 % of patients. In test [1] (recombinant versus natural alpha-lactalbumin), the “release compared with natural counterpart” value is on record as “much higher release than its natural counterpart”.

As to “PLGTQYTDAPSFSDIPNPIGSENSEKTTMPLWC [Cas 6, synthetic peptide of αS1-casein]”, in test [1], the “biological activity (% of patients)” value is given as 7.7 % of patients and the “extent of degranulation relative to the activity of the complete protein” value was “one fourth”. The “IgE binding (% of patients)” value in test [2] is recorded as 37.2 % of patients.

For kappa-casein [KC], the “biological activity (% of patients)” value in test [1] is 25.6 % of patients. For the same substance, the “IgE binding (% of patients)” value in test [2] was 30.8 % of patients.

These data come from patent US20100143262A1, “Method for Identifying Allergenic Proteins And Peptides” (priority 2008, published 2010).
